Several values for one entry are separate records, joined by “and”; a condition that tells them apart may be missing. Equal values may be shown once. Read-outs that look alike come from different tables or passages of the source. Marks after values point to notes of the source that are not given here.
What was measured:
[1] = tested on: NCI-H1437 NSCLC cells
Method: (§1) The percentage of growth inhibition was calculated as follows: […]

[2] = tested on: Prostate PC3 cells; test: cells
Method: as §1

[3] = tested on: Strain-1 NHMECs (M99005); test: NHMEC growth, trypan blue exclusion, 48-h treatment; assay type: cell-based, human
Excerpt: Normal human mammary epithelial cell (NHMEC) strains used to assess potential cytotoxicity of 4SP65 and 1LP65 were established from reduction mammoplasty tissue from a healthy donor (M99005 or ‘Strain-1’) ([53]) or purchased from ATCC (Manassas, VA, USA; batch#70043304 or ‘Strain-2’) or Cell Applications (San Diego, CA, USA; lot#1669 or ‘Strain-3’). Human cancer cell lines including HCC38, MDA-MB-231, A549, National Cancer Institute (NCI)-H460, NCI-H1437, NCI-H1975, DU145, LNCaP, PC3, PANC1, SKOV3, and HL60, which were free of Mycoplasma, were purchased from ATCC. HMESO1, PPMMill, and TOV21G cells, obtained from Dr. Brian Cunniff, were verified to be Mycoplasma negative using the LookOut® Mycoplasma PCR Detection Kit (Sigma-Aldrich) and to match previously annotated DNA fingerprints by the Vermont Integrative Genomics Resource DNA Analysis Facility.
To assess the effects of 4SP65 or 1LP65 on the growth of normal epithelium, experiments were performed using NHMEC strains from differing donors ([53]). Strain-1 NHMECs were plated at 5,000 cells/well in 24-well plates and allowed to reach 50% confluence before treatment with 0-150 µM 4SP65 for 48 h. Cell viability was determined using a hemocytometer and trypan blue exclusion assay. Two other NHMEC strains, exposed to 0-150 µM 4SP65 or 0-500 µM 1LP65 for 48 h, were handled in the same fashion except that viability of cells in 96-well plates was determined using CyQUANT dye. Due to the short life span of these NHMECs, standard curves were not generated and fluorescence readings were used as a surrogate marker of cell number ([54]).

[4] = tested on: NCI-H460 NSCLC cells; settings: for Fold increase in efficacy: drug alone ÷ drug in 4SP65-DDP combination
Excerpt: To test anticancer effectiveness of individual drugs or drug combinations, the CyQUANT®-NF proliferation assay was used with a plate reader (i) to generate standard curves for cell numbers for each cell line, (ii) to measure the starting cell numbers at initiation of drug treatment, and (iii) to obtain fluorescence readings from cells in 96-well plates for comparisons to a standard curve for the relevant cancer cell line and quantifying cell viability after drug treatments. […] Trypan blue exclusion was used to estimate cell numbers in a few pilot experiments and thereafter was applied to confirm very low viable cell numbers and cell death.
A series of experiments was conducted to determine the relative efficacy of 4SP65, 1LP65, and amifostine as single agents in the same human cancer cell lines.
Five metrics were calculated and used to characterize the shape of the dose-response curve following exposure to a single test agent. Using cell numbers based on fluorescence measurements and standard curves, the percentage growth was calculated at each drug concentration level. The percentage of growth inhibition was calculated as follows:
where Tz = cell numbers or fluorescence counts at time xero, C = vehicle-exposed control cell numbers at the end of the assessment time period, and Ti = test agent-exposed cell numbers or fluorescence counts at each drug concentration. […] The LC50/99 was calculated using Equation 2 = -50 and Eq. 2 = -99, respectively. […] For NHMECs, the relationships between drug exposure levels and fluorescence units were used to define dose-response metrics. The selectivity index values for individual drugs were calculated using IC50 levels in NHMECs divided by the IC50 value for each cancer cell line. Statistical comparisons of differences in individual dose-response metrics between drug treatments and cell lines were conducted using Student’s t-test, with P-values <0.05 considered significant.
Relative cell growth inhibition values for differing levels of each drug alone and in combination were input into SynergyFinder to generate dose-response curves for each drug alone and to produce a dose-response matrix. The dose-response matrix data then were used in generating a two-dimension heatmap and three-dimension volcano plot to visualize the distribution of areas of differing degrees of synergism and to calculate average and maximum synergy scores in selected human cancer cell lines. The expected drug combination responses were calculated using both the Highest Single Agent (HSA) model and the Zero interaction potency (ZIP) model.

[5] = Solubility, storage and stability of 4SP65 and 1LP65; assay type: physicochemical
Method: prepared for use and that was not altered by the solvent used, heating up to 37 °C for up to 3 days, and shaking or rocking for up to 3 days at RT or 4°C. For experiment, an aliquot of drug was first mixed in medium, the solvent was removed and saved, and gel pieces were recovered, dried on a vacuum pump, […]
The difference in the starting weight of drug placed into solvent minus the weight of the residue after drying on a vacuum pump was considered to represent the amount of drug that went into solution. The amount of drug that was dissolved at a given time ranged from 40 to 61%, averaging 50.7 ± 8.1% (SD). The weight of the 4SP65 in solution was then used for diluting the drug to concentrations of 200 or 400 µM in supplemented RPMI or DMEM/F12 medium for routine treatment of cells. The dried residue was not used in the in vitro drug efficacy studies. The formation of a gel in the aqueous solvents tested was unexpected since […]
few free thiols in polymer arms of the PEG scaffold for cross-linking reactions to occur. However, unintended topical entanglements between polymer chains of multi-arm PEG-thiol molecules without disulfide formation have been reported (Tang and Bradley 2014 24860800). Aliquots of 4SP65 dissolved in FBS enriched medium has remained stable for >6 months while remnants of the original viscous polymer have maintained stability without any apparent loss of activity when stored for 60 […]
However, the bulk of the product was dissolved at 40 mM in DMSO and stored in aliquots at −80°C for future use once by further dilution in DMSO and then final dilution in medium for treatment of normal human epithelium and human cancer cell lines at working solutions of 4 mM or 400 µM drug. 1LP65 has maintained stability for six months in frozen aliquots but should be stable in DMSO at −80°C for two to three years based upon recommended storage conditions for cystamine dihydrochloride (Selleck Chemical product information), an analogous 225 Da compound with a disulfide bond and amine groups like 1LP65. […]

[6] = tested on: Mammary gland HCC38 cells; test: CyQUANT-NF proliferation assay, 48-h drug treatment; assay type: cell-based; settings: for Relative cell inhibition: 99% confluent cells, 48 h
[7] = tested on: Mammary gland MDA-MB-231 cells; test: as above; assay type: cell-based
Method: Since the BRG prodrugs are composed of WR1065 as one of the major constituents, assays were conducted to determine if factors reported to modulate the activity of amino acid and polyamine plasma membrane transport systems impacted the efficacy of 4SP65 or 1LP65 in selected cancer cell lines. HL60 cells were exposed to 4SP65 with up to 0.5 mM NaCl, MBA-MD-231 cells were tested in the presence and absence of medium supplemented with estradiol plus insulin (in the BulletKit™ for growth supplements for NHMECs), HCC38 cells were exposed to 4SP65 with and without 10 µM insulin added to the growth medium, and multiple cells lines were pretreated for 24 h with 1 mM DFMO prior to starting exposures to 4SP65.
as §1

[8] = 48-h treatment, amifostine ND = not definable up to 500 µM
[9] = drug alone, 48 h, 4SP65/cisplatin study
[10] = drug alone, 48 h, 4SP65/cisplatin study, ND = not definable, highest concentration in parentheses
[11] = aqueous solvents/medium, remainder formed a gel

## 4-star-PEG-S-S-WR1065 [4SP65]
[1]
  CC50: 19.6 ± 0.7 µM
[1]; [8]
  GI50: 10.6 ± 2 µM
  IC50: 12.5 ± 2.6 µM
  LC99: 21.1 ± 0.2 µM
  TGI: 16.3 ± 1.9 µM
[1]; at GI50
  Dose reduction value 1LP65 ÷ 4SP65: 6.5 fold
[1]; at IC50
  Dose reduction value 1LP65 ÷ 4SP65: 6.0 fold
[1]; at LC50
  Dose reduction value 1LP65 ÷ 4SP65: 8.0 fold
[1]; at LC99
  Dose reduction value 1LP65 ÷ 4SP65: 11 fold
[1]; at TGI
  Dose reduction value 1LP65 ÷ 4SP65: 6.3 fold
[2]
  CC50: 4.5 ± 0.6 µM
[2]; [8]
  GI50: 700 ± 200 nM
  IC50: 2000 ± 300 nM
  LC99: 5.8 ± 0.8 µM
  TGI: 2.1 ± 0.5 µM and 2.1 µM
[2]; at GI50
  Dose reduction value 1LP65 ÷ 4SP65: 25 fold
  Dose reduction value AMF ÷ 4SP65: 58 fold
[2]; at IC50
  Dose reduction value 1LP65 ÷ 4SP65: 19 fold
  Dose reduction value AMF ÷ 4SP65: 52 fold
[2]; at LC50
  Dose reduction value 1LP65 ÷ 4SP65: 13 fold
[2]; at LC99
  Dose reduction value 1LP65 ÷ 4SP65: 15 fold
[2]; at TGI
  Dose reduction value 1LP65 ÷ 4SP65: 19 fold
  Dose reduction value AMF ÷ 4SP65: 143 fold
[3]; Strain-1 NHMECs
  IC50: > 150 µM
[3]; Strain-1 cells, 5 µM
  growth enhancement compared to sham-exposed control cells: 336%
[3]; Strain-1 cells, 15 µM
  growth enhancement compared to sham-exposed control cells: 286%
[3]; Strain-1 cells, 50 µM
  growth as % of the control cell growth: 68%
[3]; Strain-1 cells, 150 µM
  growth pattern: growth enhancement
[4]; [8]
  GI50: 9.4 ± 1.5 µM
  IC50: 10.7 ± 1.3 µM
  LC99: 17.7 ± 0.8 µM
  TGI: 14.1 ± 1.5 µM and 14.1 µM
[4]; at GI50
  Dose reduction value 1LP65 ÷ 4SP65: 8.3 fold
  Fold increase in efficacy: 36 fold
[4]; at IC50
  Dose reduction value 1LP65 ÷ 4SP65: 8.4 fold
  Fold increase in efficacy: 20** fold
[4]; at LC50
  Dose reduction value 1LP65 ÷ 4SP65: 9.5 fold
[4]; at LC99
  Dose reduction value 1LP65 ÷ 4SP65: 10 fold
[4]; at TGI
  Dose reduction value 1LP65 ÷ 4SP65: 8.8 fold
[4]; at LC50, GoE = gain of effect
  Fold increase in efficacy: 5.3^c fold
[4]; at LC99, GoE = gain of effect
  Fold increase in efficacy: 4.3^c fold
[4]; at TGI, GoE = gain of effect
  Fold increase in efficacy: 7.4^c fold
[4]; [9]
  GI50: 12.3 ± 1.1 µM
  IC50: 13.3 ± 1 µM
[4]; [10]
  LC99: 18.2 ± 0.4 µM
  TGI: 16.9 ± 0.6 µM
[5]
  highest level testable based upon maximum solubility in aqueous medium: 150 µM
  storage time with maintained stability without apparent loss of activity: 60 months
[5]; aliquots dissolved in FBS enriched medium
  time remained stable: > 6 months
[5]; [11]
  amount of drug dissolved at a given time, average (SD): 50.7 ± 8.1%
  amount of drug dissolved at a given time, range: 40 to 61%
[6]
  CC50: 6.8 ± 0.9 µM
[6]; [8]
  GI50: 1300 ± 400 nM
  IC50: 4.1 ± 0.2 µM
  LC99: 11.9 ± 1.6 µM
  TGI: 3.7 ± 0.3 µM
[6]; 10 µM 4SP65 alone
  Relative cell inhibition: 3.4 ± 10.9%
[6]; 10 µM 4SP65 with 10 µM insulin
  Relative cell inhibition: 42 ± 6.5%
[6]; IC50 in NHMECs ÷ IC50 in HCC38, average
  selectivity index: > 31
[6]; at GI50
  Dose reduction value 1LP65 ÷ 4SP65: 28 fold
  Dose reduction value AMF ÷ 4SP65: 60 fold
[6]; at IC50
  Dose reduction value 1LP65 ÷ 4SP65: 12 fold
  Dose reduction value AMF ÷ 4SP65: 67 fold
[6]; at LC50
  Dose reduction value 1LP65 ÷ 4SP65: 8.8 fold
[6]; at LC99
  Dose reduction value 1LP65 ÷ 4SP65: 7.1 fold
[6]; at TGI
  Dose reduction value 1LP65 ÷ 4SP65: 13 fold
  Dose reduction value AMF ÷ 4SP65: 69 fold
[6]; growth-arrested cells
  fold increase in drug efficacy with insulin: 12.4 fold
[7]
  CC50: 9.2 ± 1.2 µM
[7]; [8]
  IC50: 4.7 ± 0.9 µM
  LC99: 11.0 ± 1.8 µM
  TGI: 6.6 ± 1.0 µM and 6.6 µM
[7]; IC50 in NHMECs ÷ IC50 in MDA-MB-231, average
  selectivity index: > 26
[7]; at GI50
  Dose reduction value 1LP65 ÷ 4SP65: 26 fold
[7]; at IC50
  Dose reduction value 1LP65 ÷ 4SP65: 15 fold
[7]; at LC50
  Dose reduction value 1LP65 ÷ 4SP65: 15 fold
[7]; at LC99
  Dose reduction value 1LP65 ÷ 4SP65: 14 fold
[7]; at TGI
  Dose reduction value 1LP65 ÷ 4SP65: 21 fold
[7]; insulin plus estradiol
  fold increase in drug efficacy at the TGI level with hormones: ~4 fold
[7]; with insulin plus estradiol, 48 h
  TGI: 1.2 µM
[7]; without hormones, 48 h (pilot experiment)
  TGI: 4.6 µM
